Drawing on ChEMBL document CHEMBL5252635, “The Mycobacterium tuberculosis mycothiol S-transferase is divalent metal-dependent for mycothiol binding and transfer” (2023), this text covers Tm and ΔTm for one compound.

The target of assay [1] is T1, Conserved protein (Mycobacterium tuberculosis) (UniProt O53728).
T1 sequence (whole entry): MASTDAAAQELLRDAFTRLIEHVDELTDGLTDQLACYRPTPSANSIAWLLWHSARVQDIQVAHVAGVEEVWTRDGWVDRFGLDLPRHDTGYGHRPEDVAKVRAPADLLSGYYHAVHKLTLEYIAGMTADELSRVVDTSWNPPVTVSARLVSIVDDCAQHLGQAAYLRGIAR
Description: Binding affinity to Mycobacterium tuberculosis MST assessed as melting temperature in presence of cobalt by differential scanning fluorimetry method

In assay [2] the target is T1, Conserved protein (Mycobacterium tuberculosis). The source holds these as a separate data set.
Description: Binding affinity to Mycobacterium tuberculosis MST assessed as change in melting temperature in presence of zinc by differential scanning fluorimetry method
The target is the same in assay [3]. The source holds these as a separate data set.
Description: Binding affinity to Mycobacterium tuberculosis MST assessed as change in melting temperature in presence of ferrous by differential scanning fluorimetry method
Assay [4] shares this target. This is another data set of the same source.
Description: Binding affinity to Mycobacterium tuberculosis MST assessed as melting temperature in presence of zinc by differential scanning fluorimetry method
The target is the same in assay [5]. This is another data set of the same source.
Description: Binding affinity to Mycobacterium tuberculosis MST assessed as melting temperature by differential scanning fluorimetry method
Assay [6] shares this target. This is another data set of the same source.
Description: Binding affinity to Mycobacterium tuberculosis MST assessed as change in melting temperature in presence of cobalt by differential scanning fluorimetry method
Assay [7] shares this target. This is another data set of the same source.
Description: Binding affinity to Mycobacterium tuberculosis MST assessed as melting temperature in presence of ferrous by differential scanning fluorimetry method
For assay [8] the target is unchanged. The source holds these as a separate data set.
Description: Binding affinity to Mycobacterium tuberculosis MST assessed as change in melting temperature in presence of nickle by differential scanning fluorimetry method
The target is the same in assay [9]. This is another data set of the same source.
Description: Binding affinity to Mycobacterium tuberculosis MST assessed as melting temperature in presence of nickle by differential scanning fluorimetry method

`CC(=O)N[C@@H](CS)C(=O)N[C@H]1[C@@H](O[C@@H]2[C@H](O)[C@H](O)[C@@H](O)[C@H](O)[C@H]2O)O[C@H](CO)[C@@H](O)[C@@H]1O`: the Tm in assay [1] stood at 65.1 °C; in assay [4], 71.9 °C; in [5], 59 °C; in assay [7], 62.2 °C; in assay [9] it was 68.9 °C. Further, the shift in melting temperature (ΔTm) in [2] was 12.9 °C; in [3], 3.2 °C; in assay [6], 6.1 °C; in [8] it was 9.9 °C.
